Measured values taken from patent US10214542B2, “Modified macrocyclic compounds” (BAYER PHARMA AKTIENGESELLSCHAFT, priority 2015, dated 2019).
pIC50: −log10 of the molar value.

Key:
CDK9/CycT1 = biological target: T1, CDK9/CycT1 (Homo sapiens, UniProt P50750); assay: CDK9/CycT1 kinase assay (TR-FRET, Method 1a); type: biochemical; details: 10 μM ATP; for pIC50: Method 1a; for Selectivity CDK9 over CDK2: IC50 (CDK2)/IC50 (CDK9): Methods 1a and 2a
T1 construct: Recombinant full-length His-tagged human CDK9 and CycT1; His; purchased Invitrogen PV4131; host or cells: insect cells
T1 sequence (P50750 whole entry): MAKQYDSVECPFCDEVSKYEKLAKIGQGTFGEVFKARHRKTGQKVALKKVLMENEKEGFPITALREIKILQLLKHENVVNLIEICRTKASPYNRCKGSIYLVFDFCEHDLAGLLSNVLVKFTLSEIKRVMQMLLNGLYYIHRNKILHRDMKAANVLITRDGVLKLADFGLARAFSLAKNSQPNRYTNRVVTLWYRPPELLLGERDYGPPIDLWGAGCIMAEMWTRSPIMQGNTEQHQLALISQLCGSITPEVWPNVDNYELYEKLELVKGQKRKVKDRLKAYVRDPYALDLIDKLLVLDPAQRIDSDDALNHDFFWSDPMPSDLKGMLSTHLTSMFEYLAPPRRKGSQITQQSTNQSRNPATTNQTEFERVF
T1 sequence (O60563 whole entry partner): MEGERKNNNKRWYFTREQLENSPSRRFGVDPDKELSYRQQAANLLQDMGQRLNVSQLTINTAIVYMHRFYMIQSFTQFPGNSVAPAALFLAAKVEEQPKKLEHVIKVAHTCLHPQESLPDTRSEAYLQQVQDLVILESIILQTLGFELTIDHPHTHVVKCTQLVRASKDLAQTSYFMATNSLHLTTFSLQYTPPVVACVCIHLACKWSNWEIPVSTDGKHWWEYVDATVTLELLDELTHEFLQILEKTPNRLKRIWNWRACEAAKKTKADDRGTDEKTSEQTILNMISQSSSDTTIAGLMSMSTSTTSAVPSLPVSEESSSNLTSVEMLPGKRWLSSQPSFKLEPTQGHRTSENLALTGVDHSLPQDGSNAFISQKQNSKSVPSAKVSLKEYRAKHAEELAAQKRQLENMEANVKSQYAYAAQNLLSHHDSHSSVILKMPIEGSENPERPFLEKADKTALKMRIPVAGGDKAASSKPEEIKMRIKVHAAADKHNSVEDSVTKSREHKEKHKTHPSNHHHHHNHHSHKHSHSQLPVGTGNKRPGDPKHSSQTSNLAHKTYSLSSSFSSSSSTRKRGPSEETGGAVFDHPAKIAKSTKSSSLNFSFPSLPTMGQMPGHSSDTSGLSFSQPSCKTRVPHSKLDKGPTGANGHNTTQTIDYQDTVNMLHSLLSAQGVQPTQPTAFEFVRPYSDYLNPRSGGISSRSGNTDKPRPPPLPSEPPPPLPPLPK
Excerpt: 1a. CDK9/CycT1 Kinase Assay:
CDK9/CycT1-inhibitory activity of compounds of the present invention was quantified employing the CDK9/CycT1 TR-FRET assay as described in the following paragraphs:
Recombinant full-length His-tagged human CDK9 and CycT1, expressed in insect cells and purified by Ni-NTA affinity chromatography, were purchased from Invitrogen (Cat. No PV4131). As substrate for the kinase reaction biotinylated peptide biotin-Ttds-YISPLKSPYKISEG (C-terminus in amid form) was used which can be purchased e.g. from the company JERINI Peptide Technologies (Berlin, Germany).
For the assay 50 nl of a 100 fold concentrated solution of the test compound in DMSO was pipetted into a black low volume 384 well microtiter plate (Greiner Bio-One, Frickenhausen, Germany), 2 μl of a solution of CDK9/CycT1 in aqueous assay buffer [50 mM Tris/HCl pH 8.0, 10 mM MgCl2, 1.0 mM dithiothreitol, 0.1 mM sodium ortho-vanadate, 0.01% (v/v) Nonidet-P40 (Sigma)] were added and the mixture was incubated for 15 min at 22° C. to allow pre-binding of the test compounds to the enzyme before the start of the kinase reaction. […] The concentration of CDK9/CycT1 was adjusted depending of the activity of the enzyme lot and was chosen appropriate to have the assay in the linear range, typical concentrations were in the range of 1 μg/mL. The reaction was stopped by the addition of 5 μl of a solution of TR-FRET detection reagents (0.2 μM streptavidine-XL665 [Cisbio Bioassays, Codolet, France] and 1 nM anti-RB(pSer807/pSer811)-antibody from BD Pharmingen [#558389] and 1.2 nM LANCE EU-W1024 labeled anti-mouse IgG antibody [Perkin-Elmer, product no. AD0077]) in an aqueous EDTA-solution (100 mM EDTA, 0.2% (w/v) bovine serum albumin in 100 mM HEPES pH 7.5).
The resulting mixture was incubated 1 h at 22° C. to allow the formation of complex between the phosphorylated biotinylated peptide and the detection reagents. Subsequently the amount of phosphorylated substrate was evaluated by measurement of the resonance energy transfer from the Eu-chelate to the streptavidine-XL. Therefore, the fluorescence emissions at 620 nm and 665 nm after excitation at 350 nm was measured in a HTRF reader, e.g. a Rubystar (BMG Labtechnologies, Offenburg, Germany) or a Viewlux (Perkin-Elmer). The ratio of the emissions at 665 nm and at […] was taken as the measure for the amount of phosphorylated substrate. The data were normalised (enzyme reaction without inhibitor=0% inhibition, all other assay components but no enzym=100% inhibition).

B16F10 cells = assay: Proliferation assay, crystal violet (Method 3); type: cell-based; details: Mus musculus, B16-F10, 96 h; B16F10, 4 days; read-out: Inhibition of B16F10 cell proliferation IC50
Description: (§1) Cultivated tumour cells (HeLa, human cervical tumour cells, ATCC CCL-2; NCI-H460, human non-small cell lung carcinoma cells, ATCC HTB-177; DU 145, hormone-independent human prostate carcinoma cells, ATCC HTB-81; HeLa-MaTu-ADR, multidrug-resistant human cervical carcinoma cells, EPO-GmbH Berlin; Caco-2, human colorectal carcinoma cells, ATCC HTB-37; B16F10, mouse melanoma cells, ATCC CRL-6475) were plated at a density of 5,000 cells/well (DU145, HeLa-MaTu-ADR), 3,000 cells/well (NCI-H460, HeLa), 1,500 cells/well (Caco-2), or 1,000 cells/well (B16F10) in a 96-well multititer plate in 200 μL of their respective growth medium supplemented 10% fetal calf serum. After 24 hours, the cells of one plate (zero-point plate) were stained with crystal violet (see below), while the medium of the other plates was supplemented with the test substances in various concentrations (0 μM, as well as in the range of 0.0001-10 μM; the final concentration of the solvent dimethyl sulfoxide was adjusted to 0.1%) using a Hewlett-Packard HP D300 Digital Dispenser. The cells were incubated for 4 days in the presence of test substances. Cell proliferation was determined by staining the cells with crystal violet: the cells were fixed by adding 20 μl/measuring point of an 11% glutaric aldehyde solution for 15 minutes at room temperature. After three washing cycles of the fixed cells with water, the plates were dried at room temperature. The cells were stained by adding 100 μl/measuring point of a 0.1% crystal violet solution (pH 3.0). After three washing cycles of the stained cells with water, the plates were dried at room temperature. The dye was dissolved by adding 100 μl/measuring point of a 10% acetic acid solution. The extinction was determined by photometry at a wavelength of 595 nm. The change of cell number, in percent, was calculated by normalization of the measured values to the extinction values of the zero-point plate (=0%) and the extinction of the untreated (0 μm) cells (=100%). The IC50 values (inhibitory concentration at 50% of maximal effect) were determined by means of a 4 parameter fit.

DU145 cells = assay: Proliferation assay, crystal violet (Method 3); type: cell-based; details: Homo sapiens, DU-145, 96 h; DU145, 4 days; read-out: Inhibition of DU145 cell proliferation IC50
Description: as §1

HeLa-MaTu-ADR cells = assay: Proliferation assay, crystal violet (Method 3); type: cell-based; details: Homo sapiens, 96 h, 4 days, read-out: Inhibition of HeLa-MaTu-ADR cell proliferation IC50
Description: as §1

Caco-2 cells = assay: Proliferation assay, crystal violet (Method 3); type: cell-based; details: Homo sapiens, 96 h; Caco-2, 4 days; read-out: Inhibition of Caco-2 cell proliferation IC50
Description: as §1

NCI-H460 cells = assay: Proliferation assay, crystal violet (Method 3); type: cell-based; details: Homo sapiens, 96 h; NCI-H460, 4 days; read-out: Inhibition of NCI-H460 cell proliferation IC50
Description: as §1

Row | Structure (SMILES) | pIC50 (CDK9/CycT1) | Selectivity CDK9 over CDK2: IC50 (CDK2)/IC50 (CDK9) (CDK9/CycT1) | pIC50 (B16F10 cells) | pIC50 (DU145 cells) | pIC50 (HeLa-MaTu-ADR cells) | pIC50 (Caco-2 cells) | pIC50 (NCI-H460 cells)
1 | CS(=N)(=O)Cc1cc2nc(c1)Nc1cc(c(F)cn1)-c1ccc(F)cc1OCCCCCN2 (racemic) [Example 10, (rac)-17,21-difluoro-10-[(S-methylsulfonimidoyl)methyl]-2,3,4,5,6,7-hexahydro-13H-12,8-(azeno)-14,18-(metheno)-1,7,13,15-benzoxatriazacycloicosine] | 8.47 | 8.2 | 7.59 | 7.96 | 7.72 | 7.89 | 7.74
2 | CN1CCCCOc2cc(F)ccc2-c2cc(ncc2F)Nc2cc(CS(C)(=N)=O)cc1n2 (racemic) [Example 11, (rac)-16,20-difluoro-6-methyl-9-[(S-methylsulfonimidoyl)methyl]-3,4,5,6-tetrahydro-2H-7,11-(azeno)-17,13-(metheno)-1,6,12,14-benzoxatriazacyclononadecine] | 8.29 | 6.7 | 7.92 | 7.92 | 7.92 | 8.05 | 7.92
3 | CC(C)(C)OC(=O)N=S(C)(=O)Cc1cc2cc(c1)OCCCCNc1cc(F)ccc1-c1nc(ncc1F)N2 (racemic) [Example 15, (rac)-tert-butyl[{[16,20-difluoro-2,3,4,5-tetrahydro-1H,12H-13,17-(azeno)-11,7-(metheno)-6,1,12,14-benzoxatriazacyclononadecin-9-yl]methyl}(methyl)oxido-λ^6-sulfanylidene]carbamate] | 8.05 | 29.4 | 7.08 | 7.40 | 7.20 | 7.32 | 7.19
4 | CS(=N)(=O)Cc1cc2cc(c1)OCCCCNc1cc(F)ccc1-c1nc(ncc1F)N2 (racemic) [Example 16, (rac)-16,20-difluoro-9-[(S-methylsulfonimidoyl)methyl]-2,3,4,5-tetrahydro-1H-17,13-(azeno)-7,11-(metheno)-6,1,12,14-benzoxatriazacyclononadecine] | 8.41 | 7.7 | 7.74 | 7.92 | 7.89 | 7.92 | 7.70
5 | CN1CCCCNc2cc(F)ccc2-c2nc(ncc2F)Nc2cc(CS(C)(=N)=O)cc1c2.O=CO (racemic) [Example 17, (rac)-16,20-difluoro-6-methyl-9-[(S-methylsulfonimidoyl)methyl]-1,2,3,4,5,6-hexahydro-12H-17,13-(azeno)-11,7-(metheno)-1,6,12,14-benzotetraazacyclononadecine; salt with formic acid] | 8.38 | 17.6 | 7.42 | 7.52 | 7.52 | 7.62 | 7.46
6 | C[S+]([O-])Cc1cc2nc(c1)OCCCCCc1cc(F)ccc1-c1cc(ncc1F)N2 (racemic) [Example 19, (rac)-2,19-difluoro-9-[(methylsulfinyl)methyl]-14,15,16,17-tetrahydro-6H,13H-7,11-(azeno)-5,1-(metheno)-12,4,6-benzoxadiazacyclononadecine] | 7.82 | 24.7 | 5.81 | 6.03 | 6.05 | 6.03 | 5.94
7 | CS(=N)(=O)Cc1cc2nc(c1)OCCCCCc1cc(F)ccc1-c1cc(ncc1F)N2 (racemic) [Example 20, (rac)-2,19-difluoro-9-[(S-methylsulfonimidoyl)methyl]-14,15,16,17-tetrahydro-6H,13H-7,11-(azeno)-5,1-(metheno)-12,4,6-benzoxadiazacyclononadecine] | 8.26 | 29.5 | 6.06 | 6.46 | 6.44 | 6.46 | 6.24
8 | CSCc1cc2nc(c1)Nc1cc(c(F)cn1)-c1ccc(F)cc1OCCCN2 [Example 1, 15,19-Difluoro-8-[(methylsulfanyl)methyl]-2,3,4,5-tetrahydro-11H-10,6-(azeno)-12,16-(metheno)-1,5,11,13-benzoxatriazacyclooctadecine] | 8.54 | 28.1 | 7.29 | 7.52 | 7.55 | 7.44 | 7.51
9 | CSCc1cc2nc(c1)OCCCCc1cc(F)ccc1-c1cc(ncc1F)N2 [Example 4, 2,18-Difluoro-9-[(methylsulfanyl)methyl]-13,14,15,16-tetrahydro-6H-7,11-(azeno)-5,1-(metheno)-12,4,6-benzoxadiazacyclooctadecine] | 7.44 | >556 | < 5.00 | < 5.00 | 5.25 | 5.59 | 5.32
10 | CSCc1cc2nc(c1F)N(C)CCCCOc1cc(F)ccc1-c1cc(ncc1F)N2 [Example 12, 8,16,20-trifluoro-6-methyl-9-[(methylsulfanyl)methyl]-3,4,5,6-tetrahydro-2H,12H-11,7-(azeno)-13,17-(metheno)-1,6,12,14-benzoxatriazacyclononadecine] | 7.60 | 1.1 | 6.00 | 6.07 | 6.06 | 6.36 | 6.23
11 | CSCc1cc2nc(c1)OCCCCCc1cc(F)ccc1-c1cc(ncc1F)N2 [Example 18, 2,19-difluoro-9-[(methylsulfanyl)methyl]-14,15,16,17-tetrahydro-6H,13H-7,11-(azeno)-5,1-(metheno)-12,4,6-benzoxadiazacyclononadecine] | 7.00 | 25.9 | < 5.00 | < 5.00 | < 5.00 | 5.33 | < 5.00
